Results from patent US8048889B2, “3,4-disubstituted coumarin and quinolone compounds” (XTL Biopharmaceuticals Ltd., priority 2005, dated 2011).

How the values were obtained:
[1] = tested on: HCV Replicon (HCV IRES driven luciferase reporter in Huh-Luc-Neo cells); assay: HCV Replicon Luciferase Assay; assay type: cell-based; conditions: Hepatitis C virus, 48 h, no unit in table, hit threshold in μM
Method: (§1) The identification of inhibitors of HCV replication and/or proliferation has been facilitated by the development of a cell based system to study HCV replication and assay for HCV inhibitors. Inhibition of HCV replication may be performed using the HCV Replicon Assay developed in the laboratories of Bartenschlager (Lohman et al, Science 285, 110-113, 1999) and Rice (Blight et al, Science 290, 1972-1974, 2000). The assay is performed using the Huh-Luc-Neo cell line (Lohman et al, Science 285, 110-113, 1999). Huh-Luc-Neo cells are a human hepatoma cell line (Huh-7) stably expressing a bi-cistronic subgenomic replicon containing the HCV IRES in which the structural proteins of HCV had been deleted and replaced by a construct containing sequences coding for the firefly luciferase reporter gene, the neomycin selectable marker and the EMCV IRES to direct expression of a truncated HCV genome expressing the […] NS3, NS4A, NS4B, NS5A, and NS5B. HCV targets through which inhibitors could act to inhibit replication include the NS3 protease, the helicase/ATPase, NS5A, the NS5B- RNA dependent RNA polymerase, and the HCV IRES.
(§2) Expression of HCV IRES driven luciferase reporter activity and HCV RNA is measured to obtain indirect and direct measures of replication of HCV RNA respectively. Inhibitors of HCV replication and/or proliferation are determined by initially identifying molecules that inhibit expression of the HCV IRES driven luciferase reporter in this HCV Replicon Luciferase Assay. Cell viability assays and control cell based luciferase assays are then run on hits identified in the HCV Replicon Luciferase Assay to eliminate cytoxic compounds and non-specific compounds which act by inhibiting the luciferase enzyme.
(§3) Day 0 Cell Seeding and Compound Treatment: Huh-Luc-Neo Cells are seeded at 25,000/well in an opaque-walled 96 plate with Growth Medium (DMEM phenol red free+PS+2 mM glutamine; 100 μl/well). The compounds to be tested are added to the experimental wells (10 μl/well at 10× assay concentration) and the cells are then incubated (5% CO2, 37° C.) for 48 h.
(§4) Day 2 Reagent Preparation and Luciferase Assay: The Bright-Glo Luciferase Assay Buffer (Promega) is thawed and equilibrated to room temperature prior to use. The lyophilized Bright-Glo Luciferase Assay Substrate is equilibrated to room temperature prior to use. 10 ml of Bright-Glo Luciferase Assay Buffer is transferred to 1 vial of Bright-Glo Luciferase Assay Substrate bottle and mixed by gently with a Vortex. 100 ul of Bright-Glo Luciferase Assay reagent (Bright-Glo Luciferase Assay Buffer+Bright-Glo Luciferase Assay Substrate Mixture) is added to each well. The well contents are mixed for 5 min. on an orbital shaker at room temperature to induce cell lysis and the luminescence is then measured using a luminometer. The data is analyzed and IC50s are determined using GraphPad Prism 4 software. Hits validated in the Replicon Luciferase assay have IC50s<8.0 μM and show<30% inhibition of Cell Viability at a compound concentration of 100 μM (Cell Titer Glow Assay, cell viability assay conditions identical to HCV Replicon Luciferase Assay conditions).

Huh-Luc-Neo cells = assay: CellTiter-Glo Cell Viability Assay; assay type: cell-based, human; conditions: for Toxicity % Inhibition at 50 uM (2 doses): inhibition of cell viability at 50 uM, conditions as in Replicon RNA Assay; for Toxicity % Inhibition at 100 um (1 dose): inhibition of cell viability at 100 um, conditions as in Replicon Luciferase Assay (48 h)
Method: as §4
(§5) Day 3, Quantitative PCR Based Measurement of HCV RNA (Taqman Assay): Quantitative PCR analysis to measure HCV RNA expression from cDNA synthesized on Day 2 is performed using the ABI 9700 HT Sequence Detection System (Applied Biosystems) as previously described (Lohman et al, Science 285, 110-113, 1999). The data is analyzed and IC50s are determined using GraphPad Prism 4 software. Hits validated in the Replicon RNA Assay have IC50s<8.0 μM and show <30% inhibition of Cell Viability at a compound concentration of 50 μM (Cell Titer Glow Assay, cell viability assay conditions identical to HCV Replicon RNA Assay conditions).
as §3, with “Day 0,” for “Day 0”, “100 ul/well).” for “100 μl/well).”, “tested for inhibition of cell viability” for “tested”
Day 2, Reagent Preparation and Assay: The CellTiter-Glo Buffer is thawed and equilibrated to room temperature prior to use. The lyophilized CellTiter-Glo Substrate is equilibrated to room temperature prior to use. 10 ml of CeliTiter-Glo Buffer is transferred to 1 vial of CellTiter-Glo Substrate and mixed by gently with a Vortex. 100 μl of CellTiter-Glo Assay reagent (CellTiter-Glo Buffer+CellTiter-Glo Substrate Mixture) is added to each well. The well contents are mixed for 5 min. on an orbital shaker at room temperature to induce cell lysis and the luminescence is then measured using a luminometer.

[2] = tested on: HCV Replicon (HCV RNA in Huh-Luc-Neo cells); assay: HCV Replicon RNA Assay (Taqman); assay type: cell-based, Hepatitis C virus; conditions: compound added day 0 and day 1, no unit in table, hit threshold in μM; for IC50: Hepatitis C virus
Method: as §1, §2
as §3, with “Day 0,” for “Day 0”, “37° C.).” for “37° C.) for 48 h.”
Day 1, Media Change and Compound Treatment: 24 hours after the initial compound treatment the cell culture media is aspirated from the wells and fresh Growth Medium is added (DMEM phenol red free+PS+2 mM glutamine; 100 μl/well). The compounds to be tested are then added to the appropriate experimental wells (10 μl/well at 10 × assay concentration) and the cells are then incubated (5% CO2, 37° C.) for an additional 24 hrs.
Day 2, RNA Isolation and cDNA Synthesis: The cells are washed with 1× Phosphate Buffered Saline (PBS) once.
as §5

## O=c1oc2ccccc2c(OCc2cccc(C(F)(F)F)c2)c1Cc1cccc(C(F)(F)F)c1 [VQ_31711]
[1]
  IC50: 5.16 µM
Huh-Luc-Neo cells
  Toxicity % Inhibition at 50 uM (2 doses): 4.3%
  Toxicity % Inhibition at 100 um (1 dose): 4.6%
[2]
  IC50: 0.12 µM

## O=c1oc2ccccc2c(OCc2ccc(C(F)(F)F)cc2)c1Cc1ccc(C(F)(F)F)cc1 [VQ_31712]
[1]
  IC50: 4.92 µM
Huh-Luc-Neo cells
  Toxicity % Inhibition at 50 uM (2 doses): 10.0%
  Toxicity % Inhibition at 100 um (1 dose): 16.6%
[2]
  IC50: > 30 µM

## Cc1ccc(COc2c(Cc3ccc(C)cc3)c(=O)oc3ccccc23)cc1 [VQ_31715]
[1]
  IC50: 2.8 µM
Huh-Luc-Neo cells
  Toxicity % Inhibition at 50 uM (2 doses): 13.4%
  Toxicity % Inhibition at 100 um (1 dose): 53.4%
[2]
  IC50: 0.55 µM

## COc1ccc2c(OCc3cccc(C)c3)c(Cc3cccc(C)c3)c(=O)oc2c1 [VQ_31729]
[1]
  IC50: 3.53 µM
Huh-Luc-Neo cells
  Toxicity % Inhibition at 50 uM (2 doses): 5.1%
  Toxicity % Inhibition at 100 um (1 dose): 3.0%
[2]
  IC50: 0.36 µM

## COc1ccc2c(OCc3cccc(Cl)c3)c(Cc3cccc(Cl)c3)c(=O)oc2c1 [VQ_31734]
[1]
  IC50: 3.84 µM
Huh-Luc-Neo cells
  Toxicity % Inhibition at 50 uM (2 doses): 0.7%
  Toxicity % Inhibition at 100 um (1 dose): 4.3%
[2]
  IC50: 0.67 µM

## COc1ccc2c(OCc3ccccc3C)c(Cc3ccccc3C)c(=O)oc2c1 [VQ_31738]
[1]
  IC50: 5.44 µM
Huh-Luc-Neo cells
  Toxicity % Inhibition at 50 uM (2 doses): 6.1%
  Toxicity % Inhibition at 100 um (1 dose): 23.6%
[2]
  IC50: 0.21 µM

## COc1ccc2c(OCc3ccc(F)cc3F)c(Cc3ccc(F)cc3F)c(=O)oc2c1 [VQ_31744]
[1]
  IC50: 4.5 µM
Huh-Luc-Neo cells
  Toxicity % Inhibition at 50 uM (2 doses): 7.0%
  Toxicity % Inhibition at 100 um (1 dose): 10.9%
[2]
  IC50: 0.28 µM

## COc1ccc2c(OCc3ccc(F)c(F)c3)c(Cc3ccc(F)c(F)c3)c(=O)oc2c1 [VQ_31748]
[1]
  IC50: 5.38 µM
Huh-Luc-Neo cells
  Toxicity % Inhibition at 50 uM (2 doses): 4.9%
  Toxicity % Inhibition at 100 um (1 dose): 10.0%
[2]
  IC50: 1.97 µM

## COc1ccc2c(OCc3cccc(C(F)(F)F)c3)c(Cc3cccc(C(F)(F)F)c3)c(=O)oc2c1 [VQ_31754]
[1]
  IC50: 5.45 µM
Huh-Luc-Neo cells
  Toxicity % Inhibition at 50 uM (2 doses): 1.9%
  Toxicity % Inhibition at 100 um (1 dose): 2.5%
[2]
  IC50: 5.35 µM

## COc1ccc2c(OCc3ccc(C(F)(F)F)cc3)c(Cc3ccc(C(F)(F)F)cc3)c(=O)oc2c1 [VQ_31758]
[1]
  IC50: 6.16 µM
Huh-Luc-Neo cells
  Toxicity % Inhibition at 50 uM (2 doses): 2.6%
  Toxicity % Inhibition at 100 um (1 dose): 14.7%
[2]
  IC50: 5.24 µM

## COc1ccc2c(OCc3ccc(C)cc3)c(Cc3ccc(C)cc3)c(=O)oc2c1 [VQ_31763]
[1]
  IC50: 8.29 µM
Huh-Luc-Neo cells
  Toxicity % Inhibition at 50 uM (2 doses): 6.5%
  Toxicity % Inhibition at 100 um (1 dose): 4.6%
[2]
  IC50: 0.43 µM

## Cc1cc2oc(=O)c(Cc3ccc(F)cc3F)c(OCc3ccc(F)cc3F)c2cc1C [VQ_32806]
[1]
  IC50: 5.57 µM
Huh-Luc-Neo cells
  Toxicity % Inhibition at 50 uM (2 doses): 8.3%
  Toxicity % Inhibition at 100 um (1 dose): 16.5%
[2]
  IC50: 1.4 µM

## Cc1ccc(COc2c(Cc3ccc(C)cc3)c(=O)n(C)c3ccccc23)cc1 [VQ_32833]
[1]
  IC50: 2.89 µM
Huh-Luc-Neo cells
  Toxicity % Inhibition at 50 uM (2 doses): 20.7%
  Toxicity % Inhibition at 100 um (1 dose): 34.6%
[2]
  IC50: 0.58 µM

## Cc1ccc(COc2c(Cc3ccc(C)cc3)c(=O)n(Cc3ccc(C)cc3)c3ccccc23)cc1 [VQ_33645]
[1]
  IC50: 2.33 µM
Huh-Luc-Neo cells
  Toxicity % Inhibition at 50 uM (2 doses): 17.2%
  Toxicity % Inhibition at 100 um (1 dose): 21.5%
[2]
  IC50: > 30 µM

## Cn1c(=O)c(Cc2ccc(Cl)c(Cl)c2)c(OCc2ccc(Cl)c(Cl)c2)c2ccccc21 [VQ_34453]
[1]
  IC50: 8.5 µM
Huh-Luc-Neo cells
  Toxicity % Inhibition at 50 uM (2 doses): 12.2%
  Toxicity % Inhibition at 100 um (1 dose): 24.6%
[2]
  IC50: 1.97 µM

## O=c1[nH]c2ccccc2c(OCc2ccc(F)cc2)c1Cc1ccc(F)cc1 [VQ_35018]
[1]
  IC50: 1 µM
Huh-Luc-Neo cells
  Toxicity % Inhibition at 50 uM (2 doses): 12.3%
  Toxicity % Inhibition at 100 um (1 dose): 10.0%
[2]
  TaqMan IC50: Inactive

## Cc1cccc(COc2c(Cc3cccc(C)c3)c(=O)[nH]c3ccccc23)c1 [VQ_35027]
[1]
  IC50: 2.1 µM
Huh-Luc-Neo cells
  Toxicity % Inhibition at 50 uM (2 doses): 12.5%
  Toxicity % Inhibition at 100 um (1 dose): 4.6%
[2]
  TaqMan IC50: Inactive

## COc1ccc(-c2c(OCc3cccc(C(F)(F)F)c3)c3ccccc3oc2=O)cc1 [VQ_36312]
[1]
  IC50: 3.06 µM
Huh-Luc-Neo cells
  Toxicity % Inhibition at 50 uM (2 doses): 40.8%
  Toxicity % Inhibition at 100 um (1 dose): 5.0%
[2]
  IC50: 0.89 µM

## COC(=O)CNCc1c(Nc2ccc(C)cc2)c2ccccc2oc1=O [VQ_36341]
[1]
  IC50: 0.28 µM
Huh-Luc-Neo cells
  Toxicity % Inhibition at 50 uM (2 doses): 31.2%
  Toxicity % Inhibition at 100 um (1 dose): 14.6%
[2]
  IC50: 0.4 µM

## Cc1ccc(Nc2c(CNc3ncccn3)c(=O)oc3ccccc23)cc1 [VQ_36343]
[1]
  IC50: 0.13 µM
Huh-Luc-Neo cells
  Toxicity % Inhibition at 50 uM (2 doses): 37.9%
  Toxicity % Inhibition at 100 um (1 dose): 21.1%
[2]
  IC50: 0.16 µM

## COc1ccc(Nc2c(/C=N/C3CCCCC3)c(=O)oc3ccccc23)cc1 [VQ_36467]
[1]
  IC50: 51.1 µM
Huh-Luc-Neo cells
  Toxicity % Inhibition at 50 uM (2 doses): 13.9%
  Toxicity % Inhibition at 100 um (1 dose): 22.8%
[2]
  IC50: 0.46 µM

## CCCCCC/N=C/c1c(Nc2ccc(OC)cc2)c2ccccc2oc1=O [VQ_36468]
[1]
  IC50: 43.3 µM
Huh-Luc-Neo cells
  Toxicity % Inhibition at 50 uM (2 doses): 16.3%
  Toxicity % Inhibition at 100 um (1 dose): 40.7%
[2]
  IC50: 0.71 µM

## COc1ccc(Nc2c(/C=N/c3nc4ccccc4s3)c(=O)oc3ccccc23)cc1 [VQ_36469]
[1]
  IC50: 53.6 µM
Huh-Luc-Neo cells
  Toxicity % Inhibition at 50 uM (2 doses): 3.3%
  Toxicity % Inhibition at 100 um (1 dose): 14.7%
[2]
  IC50: 4.16 µM

## COc1ccc(Nc2c(/C=N/c3ncccn3)c(=O)oc3ccccc23)cc1 [VQ_36470]
[1]
  IC50: 59.9 µM
Huh-Luc-Neo cells
  Toxicity % Inhibition at 50 uM (2 doses): −2.7%
  Toxicity % Inhibition at 100 um (1 dose): 12.5%
[2]
  IC50: 4.08 µM

## COc1ccc(Nc2c(/C=N/c3ccc(Cl)cc3)c(=O)oc3ccccc23)cc1 [VQ_36471]
[1]
  IC50: 0.04 µM
Huh-Luc-Neo cells
  Toxicity % Inhibition at 50 uM (2 doses): 15.2%
  Toxicity % Inhibition at 100 um (1 dose): 9.8%
[2]
  IC50: 1.78 µM
